Experimental data: paper PMC12180637, “Active peptides of TSP-1 inhibit retinal angiogenesis through the CD36 pathway in a rat model of choroidal neovascularization” (PLOS One, 2025)
Where “and” joins values, the source holds several entries; their conditions need not be identical. Identical values can stand only once. Square brackets hold non-standard residues; d marks the D form. Nva = CCC[C@H](N)C(=O)O; Sar = CNCC(=O)O

Columns and labels:
VEGF = assay: Western blot of VEGF in RF/6A cells; assay type: cell-based; settings: exogenous VEGF 1 ng/mL
Protocol: (§1) Western blot analysis was employed in this study for the assessment of the expression levels of proteins. Total protein was extracted with Radioimmunoprecipitation (RIPA) buffer (Solarbio, China) that contained phenylmethanesulfonyl fluoride (PMSF), followed by separation by 10% sodium dodecyl sulfate–polyacrylamide gel electrophoresis (SDS-PAGE, Yazyme, China). Additionally, the constant pressure of 80 V was used for 40–50 min during the electrophoresis of the proteins in compression gel. Besides, the voltage was adjusted to 120 V after the entering of proteins to the separating gel. Subsequently, proteins were transferred onto a polyvinylidene difluoride (PVDF) membrane (Millipore, USA), and the operation time was determined according to the molecular weight of the protein (VEGF-55 min, CD31-91 min). The membrane was blocked with 5% non-fat milk for 2 h and incubated with primary antibodies overnight at 4 °C, and the primary antibody was diluted with Tris-Buffered Saline with Tween 20 (TBST) following the instructions. Subsequently, the samples were washed three times with TBST, incubated with the corresponding secondary antibody for 90 min at room temperature, and washed three times with TBST. Besides, Electrochemiluminescence (Invitrogen iBright™ FL1500) was used for the visualization of proteins, followed by the imaging analysis of the experimental results. […]

[1] = stated in brackets for the recombinant human VEGF165 protein used; no test or source described; cited from earlier work
Protocol: CCK-8 and EdU assays were conducted to evaluate the cellular proliferation after a 24 h exposure to exogenous VEGF, which was amined to analyze the impact of 10 μg/mL VR-13 peptide on RF/6A cell proliferation induced through exogenous VEGF.

RF/6A cells [2] = assay: Wound-healing assay; assay type: cell-based; settings: 1 ng/mL exogenous VEGF, 24 h
Protocol: (§2) RF/6A cells were obtained from Cell Cook, China. The cells were maintained in minimum essential medium supplemented with 10% fetal Bovine serum (Viva Cell, China) and 1% penicillin-streptomycin solution (Viva Cell, China). Additionally, the samples were cultured in an incubator under the condition of 37 °C and 5% CO2.
After the drawing of 3 parallel lines at the external bottom surface of a 6-well plate, 4 × 10^5 RF/6A cells were seeded in it and incubated to a density of 80–90%. Next, scratches perpendicular to the drawn lines were made at the bottom of each well by a 200 μL pipette tip. Subsequently, the wells were rinsed three times with PBS to eliminate the floating cells. Whereafter, the medium was replaced with the serum that contained 1% fetal bovine. The wound healing process was assessed at the time point of 0 h and 24 h, alongside the acquirement of microscope images at 10× for the record and statistical analysis of the scratch distance. Additionally, the scratch healing rate was calculated as follows:
Scratch_healing_rate=0h_scratch_distance−24h_scratch_distance/0h_scratch_distance100% (1)

RF/6A cells [3] = assay: CCK-8 cell viability assay; assay type: cell-based; settings: CCK-8, different concentrations of recombinant human VEGF165 (S2 Fig A)
Protocol: as §2
(§3) The Cell Counting Kit-8 (CCK-8) from Proteintech (China) and 5-ethynyl-2′-deoxyuridine (EdU)-488™ kit from Beyotime (China) were employed for the assessment of the proliferative viability of RF/6A cell. Additionally, 10^4 cells were plated in 96-well plates. After 24 h of intervention, according to different groups, CCK-8 detection reagent was added, and the optical density was recorded at 450 nm during the following 4 h. Regarding the EdU assay, 2 × 10^4 cells were cultured in 24-well plates after 24 h of intervention according to different groups. Firstly, the EdU working solution (20μM) preheated at 37 ° C was combined with medium at the ratio of 1:1. Secondly, the cells were washed three times with (phosphate buffered saline) PBS after the fixing with 4% paraformaldehyde for 15 min. Subsequently, the samples were permeabilized with PBS that contained 0.3% Triton X-100 for 10 min, followed by three times of washing with PBS, after which the EdU detection was conducted. […] Finally, fluorescence detection was performed after nuclear staining by Hoechst 33342.

RF/6A cells [4] = assay: EdU proliferation assay; assay type: cell-based; settings: Fig 2 data, 1 ng/mL exogenous VEGF alone, 24 h, single replicates (n = 4)
Protocol: as §2, §3

[5] = test system: CD36 knockdown RF/6A cells; assay: EdU assay in CD36 knockdown cells; assay type: cell-based; settings: Fig 5 data, exogenous VEGF alone, single replicates (n = 4)
Protocol: The Cell Counting Kit-8 (CCK-8) from Proteintech (China) and 5-ethynyl-2′-deoxyuridine (EdU)-488™ kit from Beyotime (China) were employed for the assessment of the proliferative viability of RF/6A cell. Additionally, 10^4 cells were plated in 96-well plates. After 24 h of intervention, according to different groups, CCK-8 detection reagent was added, and the optical density was recorded at 450 nm during the following 4 h. Regarding the EdU assay, 2 × 10^4 cells were cultured in 24-well plates after 24 h of intervention according to different groups. Firstly, the EdU working solution (20μM) preheated at 37 ° C was combined with medium at the ratio of 1:1. Secondly, the cells were washed three times with (phosphate buffered saline) PBS after the fixing with 4% paraformaldehyde for 15 min. Subsequently, the samples were permeabilized with PBS that contained 0.3% Triton X-100 for 10 min, followed by three times of washing with PBS, after which the EdU detection was conducted. Whereafter, 100 μL Click reaction solution was added to each well and incubated at room temperature in the dark for 30 min, followed by washing again with PBS, the Click reaction solution configuration method was shown in Table 1. Finally, fluorescence detection was performed after nuclear staining by Hoechst 33342. […]

CD31 = assay: Western blot of CD31 in RF/6A cells; assay type: cell-based; settings: exogenous VEGF 1 ng/mL
Protocol: as §1

RF/6A cells [6] = assay: Flow cytometry, total apoptosis rate; assay type: cell-based
[7] = test system: VEGF-induced angiogenesis; settings: cited from earlier work
Description: (§4) Additionally, TSP-1 could interact with various ligands, including extrac ...

tumor growth = settings: cited from earlier work; for apoptotic index of endothelial cells (in words): in vivo studies, mouse tumor models; for tumor growth (in words): syngeneic and xenograft mouse models
Description: as §4

Substance | VEGF expression in RF/6A cells after exogenous VEGF (in words) (VEGF) | EC50 [1] [ng/mL] | migration of RF/6A cells exposed to VEGF (in words) (RF/6A cells [2]) | optimal concentration for inducing significant proliferation of RF/6A (RF/6A cells [3]) [ng/mL] | EdU positive(%) (RF/6A cells [4]) | EdU positive(%) [5] | CD31 expression in RF/6A cells after exogenous VEGF (in words) (CD31) | apoptosis rate (RF/6A cells [6]; Fig 3 data, RF/6A, 1 ng/mL exogenous VEGF alone, single replicates (n = 6)) | apoptosis of RF/6A cells after exogenous VEGF (in words) (RF/6A cells [6]; exogenous VEGF) | VEGF-induced angiogenesis (in words) [7] | apoptotic index of endothelial cells (in words) (tumor growth) | tumor growth (in words) (tumor growth)
VEGF | significantly upregulated | 0.3 to 3.75 | strong cell migration ability | 1 | 37.99% and 38.36% and 36.47% and 33.64% | 24% and 28.99% and 30.32% and 23.72% | significantly upregulated | 8.99 and 11.46 and 10.46 and 11.80 and 11.97 and 12.71 | didn’t exhibit a connection with apoptosis |  |  | 
Ac-Sar-Gly-Val-Dallolle-Thr-Nva-Ile-Arg-Pro-NHEt [ABT-510, anti-angiogenic nonapeptide based on TSP-1 type I repeats] |  |  |  |  |  |  |  |  |  | inhibit VEGF-induced angiogenesis | increase of the apoptotic index of endothelial cells | slow down the tumor growth
Ac-[Sar]GV[dI]T[Nva]IRP-NHEt [ABT-526, anti-angiogenic nonapeptide based on TSP-1 type I repeats] |  |  |  |  |  |  |  |  |  |  | increase of the apoptotic index of endothelial cells | slow down the tumor growth
